Measurements as given in patent US20260262643A1, “HERBICIDAL BENZOXAZINES” (FMC CORPORATION, priority 2022, published 2026).

Key:
ducksalad = assay: Test D flooded paddy test; format: in vivo, Heteranthera limosa; conditions: 250 g ai/ha, applied to paddy water, visual rating after 13 to 14 days, scale 0 to 100 (0 no effect, 100 complete control)
Outline: (§1)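 Visual ratings from 0, meaning no effect, to 100, meaning complete control, were assigned against untreated controls 13 to 14 days after compounds were added to the floodwater of pots kept 3 cm deep, with plants at the 2-leaf stage.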

horseweed = assay: Test C postemergence; format: in vivo, Erigeron canadensis; conditions: 10 days, 0 to 100 scale (0 no effect, 100 complete control)
Outline: (§2)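 Pre: seeds in loam/sand, directed soil spray. Post: 1–2 leaf plants, 2–10 cm. Cmpd in non-phytotoxic solvent + surfactant. Greenhouse 10 d; visual rating vs untreated, 0 = none, 100 = complete control.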

ryegrass, Italian [1] = assay: Test C postemergence; format: in vivo, Lolium multiflorum; conditions: 10 days, 0 to 100 scale (0 no effect, 100 complete control)
Outline: as §2

wheat [2] = assay: Test C postemergence; format: in vivo, Triticum aestivum; conditions: 10 days, 0 to 100 scale (0 no effect, 100 complete control)
Outline: as §2

blackgrass [3] = assay: Test C postemergence; format: in vivo, Alopecurus myosuroides; conditions: 10 days, 0 to 100 scale (0 no effect, 100 complete control)
Outline: as §2

sedge, umbrella = assay: Test D flooded paddy test; format: in vivo, Cyperus difformis; conditions: 250 g ai/ha, applied to paddy water, visual rating after 13 to 14 days, scale 0 to 100 (0 no effect, 100 complete control)
Outline: as §1

barnyardgrass [4] = assay: Test D flooded paddy test; format: in vivo, Echinochloa crus-galli; conditions: 250 g ai/ha, applied to paddy water, visual rating after 13 to 14 days, scale 0 to 100 (0 no effect, 100 complete control)
Outline: as §1

kochia [5] = assay: Test C preemergence; format: in vivo, Bassia scoparia
Outline: as §2

pigweed, palmer [6] = assay: Test C preemergence; format: in vivo, Amaranthus palmeri
Outline: as §2

ryegrass, Italian [7] = assay: Test C preemergence; format: in vivo, Lolium multiflorum
Outline: as §2

ragweed [8] = assay: Test C preemergence; format: in vivo, Ambrosia artemisiifolia
Outline: as §2

oat, wild [9] = assay: Test C preemergence; format: in vivo, Avena fatua
Outline: as §2

soybean [10] = assay: Test C postemergence; format: in vivo, Glycine max; conditions: 10 days, 0 to 100 scale (0 no effect, 100 complete control)
Outline: as §2

corn [11] = assay: Test C preemergence; format: in vivo, Zea mays
Outline: as §2

pigweed, palmer [12] = assay: Test C postemergence; format: in vivo, Amaranthus palmeri; conditions: 10 days, 0 to 100 scale (0 no effect, 100 complete control)
Outline: as §2

barnyardgrass [13] = assay: Test C preemergence; format: in vivo, Echinochloa crusgalli
Outline: as §2

galium = assay: Test C postemergence; format: in vivo, Galium aparine; conditions: 10 days, 0 to 100 scale (0 no effect, 100 complete control)
Outline: as §2

wheat [14] = assay: Test C preemergence; format: in vivo, Triticum aestivum
Outline: as §2

blackgrass [15] = assay: Test C preemergence; format: in vivo, Alopecurus myosuroides
Outline: as §2

corn [16] = assay: Test C postemergence; format: in vivo, Zea mays; conditions: 10 days, 0 to 100 scale (0 no effect, 100 complete control)
Outline: as §2

oat, wild [17] = assay: Test C postemergence; format: in vivo, Avena fatua; conditions: 10 days, 0 to 100 scale (0 no effect, 100 complete control)
Outline: as §2

barnyardgrass [18] = assay: Test C postemergence; format: in vivo, Echinochloa crusgalli; conditions: 10 days, 0 to 100 scale (0 no effect, 100 complete control)
Outline: as §2

ragweed [19] = assay: Test C postemergence; format: in vivo, Ambrosia artemisiifolia; conditions: 10 days, 0 to 100 scale (0 no effect, 100 complete control)
Outline: as §2

rice = assay: Test D flooded paddy test; format: in vivo, Oryza sativa; conditions: 250 g ai/ha, applied to paddy water, visual rating after 13 to 14 days, scale 0 to 100 (0 no effect, 100 complete control)
Outline: as §1

green foxtail [20] = assay: Test C preemergence; format: in vivo, Setaria viridis
Outline: as §2

green foxtail [21] = assay: Test C postemergence; format: in vivo, Setaria viridis; conditions: 10 days, 0 to 100 scale (0 no effect, 100 complete control)
Outline: as §2

kochia [22] = assay: Test C postemergence; format: in vivo, Bassia scoparia; conditions: 10 days, 0 to 100 scale (0 no effect, 100 complete control)
Outline: as §2

soybean [23] = assay: Test C preemergence; format: in vivo, Glycine max
Outline: as §2

[24] = 500 g ai/ha, preemergence, 0 to 100 scale (0 no effect, 100 complete control)
[25] = Preemergence, 125 g ai/ha, 0 to 100 scale, 0 no effect, 100 complete control

COC[C@H]1CN(C(=O)c2cc(-n3cnc(C(C)(C)C)n3)cc3c2OCCO3)c2cccc(Cl)c2O1 [Compound 382]
Plant response rating, Ducksalad (Flood) (ducksalad): 15
Plant response rating, Horseweed (horseweed; 500 g ai/ha, postemergence): 50
Plant response rating, Horseweed (horseweed; Postemergence, 125 g ai/ha): 50
Plant response rating, Ryegrass, Italian (ryegrass, Italian [1]; 500 g ai/ha, postemergence): 60
Plant response rating, Ryegrass, Italian (ryegrass, Italian [1]; Postemergence, 125 g ai/ha): 40
Plant response rating, Wheat (wheat [2]; 500 g ai/ha, postemergence): 40
Plant response rating, Wheat (wheat [2]; Postemergence, 125 g ai/ha): 20
Plant response rating, Blackgrass (blackgrass [3]; 500 g ai/ha, postemergence): 40
Plant response rating, Blackgrass (blackgrass [3]; Postemergence, 125 g ai/ha): 10
Plant response rating, Sedge, Umbrella (Flood) (sedge, umbrella): 25
Plant response rating, Barnyardgrass (Flood) (barnyardgrass [4]): 50
Kochia plant response rating (kochia [5]; [24]): 100
Plant response rating, Kochia (kochia [5]; [25]): 80
Pigweed, Palmer plant response rating (pigweed, palmer [6]; [24]): 100
Plant response rating, Pigweed, Palmer (pigweed, palmer [6]; [25]): 100
Ryegrass, Italian plant response rating (ryegrass, Italian [7]; [24]): 100
Plant response rating, Ryegrass, Italian (ryegrass, Italian [7]; [25]): 80
Ragweed plant response rating (ragweed [8]; [24]): 100
Plant response rating, Ragweed (ragweed [8]; [25]): 60
Oat, Wild plant response rating (oat, wild [9]; [24]): 80
Plant response rating, Oat, Wild (oat, wild [9]; [25]): 20
Plant response rating, Soybean (soybean [10]; 500 g ai/ha, postemergence): 100
Plant response rating, Soybean (soybean [10]; Postemergence, 125 g ai/ha): 100
Corn plant response rating (corn [11]; [24]): 70
Plant response rating, Corn (corn [11]; [25]): 10
Plant response rating, Pigweed, Palmer (pigweed, palmer [12]; 500 g ai/ha, postemergence): 100
Plant response rating, Pigweed, Palmer (pigweed, palmer [12]; Postemergence, 125 g ai/ha): 100
Barnyardgrass plant response rating (barnyardgrass [13]; [24]): 100
Plant response rating, Barnyardgrass (barnyardgrass [13]; [25]): 50
Plant response rating, Galium (galium; 500 g ai/ha, postemergence): 100
Plant response rating, Galium (galium; Postemergence, 125 g ai/ha): 100
Wheat plant response rating (wheat [14]; [24]): 40
Plant response rating, Wheat (wheat [14]; [25]): 0
Blackgrass plant response rating (blackgrass [15]; [24]): 50
Plant response rating, Blackgrass (blackgrass [15]; [25]): 10
Plant response rating, Corn (corn [16]; 500 g ai/ha, postemergence): 50
Plant response rating, Corn (corn [16]; Postemergence, 125 g ai/ha): 20
Plant response rating, Oat, Wild (oat, wild [17]; 500 g ai/ha, postemergence): 0
Plant response rating, Oat, Wild (oat, wild [17]; Postemergence, 125 g ai/ha): 0
Plant response rating, Barnyardgrass (barnyardgrass [18]; 500 g ai/ha, postemergence): 50
Plant response rating, Barnyardgrass (barnyardgrass [18]; Postemergence, 125 g ai/ha): 30
Plant response rating, Ragweed (ragweed [19]; 500 g ai/ha, postemergence): 90
Plant response rating, Ragweed (ragweed [19]; Postemergence, 125 g ai/ha): 90
Plant response rating, Rice (Flood) (rice): 15
Foxtail, Green plant response rating (green foxtail [20]; [24]): 100
Plant response rating, Foxtail, Green (green foxtail [20]; [25]): 90
Plant response rating, Foxtail, Green (green foxtail [21]; 500 g ai/ha, postemergence): 60
Plant response rating, Foxtail, Green (green foxtail [21]; Postemergence, 125 g ai/ha): 20
Plant response rating, Kochia (kochia [22]; 500 g ai/ha, postemergence): 100
Plant response rating, Kochia (kochia [22]; Postemergence, 125 g ai/ha): 90
Soybean plant response rating (soybean [23]; [24]): 80
Plant response rating, Soybean (soybean [23]; [25]): 60
